# Source: article PMC8413904 (Pharmacology Research & Perspectives, 2021)
# Tests used:
# [1] = test system: cultured rat brain cortical neurons; assay: Na^+ assay (CoroNa green‐AM); assay type: cell-based
# Experimental: (§1) All animal experimental procedures and housing have been approved by the Institutional Animal Care and Use Committee (IACUC) protocol #18‐015 of Virginia Tech. Embryonic day 18 (E18) rat brain tissue samples were obtained from adult pregnant SD rats. Rat brain primary cortical, striatal, and cerebellar neurons were cultured on poly‐d‐lysine coated 96‐well plates for 14 days in vitro (DIV14) before using for the experiments. Primary rat neuron culture was performed as previously published.[44] Briefly, each well of a 96 well plate was loaded with 50 000 cells and grown in 200 µl neurobasal media supplemented with B27, glutamax, penicillin, streptomycin. One hundred microliters of media was replaced with fresh media once in 4 days. Eight to thirteen fetus were obtained from each pregnant rat. Brain tissue from these fetus were pooled to obtain the neurons. Cortical, striatal, and cerebellar neuron assays were carried out at different time points.
# For Na^+ assay, DIV14 neurons were washed with HBSS and treated with freshly prepared CoroNa green‐AM dye (ThermoFisher, cat # C36676) and incubated for 45 min in 37°C. […] RFU values of background control and treatments were plotted to identify the effect of CNS4 on NMDA‐induced Na^+ flux in the neurons.
# [2] = test system: cultured rat brain cerebellar neurons; assay: Dynamic calcium assay (Fluo‐8); assay type: cell-based; conditions: 100 µM CNS4 plus 300 µM NMDA; p < .01 vs 300 µM NMDA (12810)
# Experimental: as §1
# (§2) Dynamic calcium assay was carried out, using Fluo‐8 no‐wash kit (abcam, ab112129), as per the manufacturer's instructions with minor modifications to fit with experimental necessities. On DIV14, all 200 μl of media was removed and replaced it with 100 μl of HBSS and 100 μl of Fluo‐8 dye loading solution. The plates were incubated at 37°C for 30 min and at room temperature for 30 min. A volume of 100 µL of test chemicals (3× of desired final concentration) was added to the plates immediately before running the calcium flux assay and read the fluorescence intensity at 490/525 nm (ex/em) using Synergy microplate reader, BioTek, VT. Costar 96‐well clear bottom black side plates were read from the bottom, nine times, with 60 s intervals between each read. Temperature was set at 37°C and reading speed was 100 ms.
# [3] = test system: cultured rat brain striatal neurons; assay: Dynamic calcium assay (Fluo‐8); assay type: cell-based
# Experimental: as §1, §2
# [4] = target: T1, GluN1/2D (UniProt O15399+P35439); assay: Current–voltage (I–V) relationship, TEVC in xenopus oocytes
# Experimental: GluN1A, GluN2B, GluN2C, GluN2D, and GluN1/2A/2B cRNAs were mixed in a ratio of 1:1–3. 50 nl of the final cRNA mixture was microinjected (40–70 ng total) into the oocyte cytoplasm. Oocytes were incubated in ND‐96 solution at 18^◦C prior to electrophysiological recordings (1–3 days).
# After obtaining a steady‐state response to different agonist applications, agonist plus 100 μM CNS4 or agonist plus 40 μM MgCl2 plus 100 μM CNS4 was applied. […] Data points were aligned by least‐square fit by third‐order polynomial equation (Y = B0 + B1*X +B2*X ^2 + B3*X ^3), except for GluN1/2B that needed a fourth‐order polynomial equation.
# [5] = test system: cultured rat brain cortical neurons; assay: Dynamic calcium assay (Fluo‐8); assay type: cell-based
# Experimental: as §1
# Dynamic calcium assay was carried out, using Fluo‐8 no‐wash kit (abcam, ab112129), as per the manufacturer's instructions with minor modifications to fit with experimental necessities. On DIV14, all 200 μl of media was removed and replaced it with 100 μl of HBSS and 100 μl of Fluo‐8 dye loading solution. The plates were incubated at 37°C for 30 min and at room temperature for 30 min. […] Costar 96‐well clear bottom black side plates were read from the bottom, nine times, with 60 s intervals between each read. Temperature was set at 37°C and reading speed was 100 ms.
# [6] = target: T1, GluN1/2D; assay: TEVC electrophysiology dose–response in xenopus oocytes; assay type: cell-based; parameters: host or cells: Xenopus oocytes (cRNA injection)
# Description: (§3) NMDAR constructs: cDNA encoding the NMDAR1a subunit (GluN1a) was obtained from Dr. Nakanishi. cDNA encoding the GluN2B (pci_sepGluN2B) was developed initially in the Malinow lab[36] and purchased from Addgene (cat# 23998). cDNA encoding the GluN2C and GluN2D were purchased from GenScript. Mutated GluN1, 2A and 2B cDNA constructs capable of assembling as GluN1/2A/2B triheteromeric (1/2AB) receptors[37] were obtained from Dr. Paoletti (Laboratoire de Neurobiologie, CNRS). […] Plasmids were linearized with NotI (GluN1a) or Avrll (GluN2B), or BstB1 (GluN2C and GluN2D) and transcribed in vitro with T7 (GluN1a, GluN1/2A, GluN2B, GluN2C, & GluN2D) RNA polymerase using the mMessage mMachine transcription kits (Invitrogen by Thermo Fisher Scientific).
# (§4) Stage IV frog oocytes were obtained from Xenopus‐I. NMDAR subunit cRNAs were suspended in nuclease‐free sterile water. GluN1A, GluN2B, GluN2C, GluN2D, and GluN1/2A/2B cRNAs were mixed in a ratio of 1:1–3. 50 nl of the final cRNA mixture was microinjected (40–70 ng total) into the oocyte cytoplasm. Oocytes were incubated in ND‐96 solution at 18^◦C prior to electrophysiological recordings (1–3 days).
# Electrophysiological responses were measured using a standard two‐microelectrode voltage‐clamp workstation [Warner Instruments (Hamden, Connecticut) model OC‐725C] designed to provide a fast clamp of large cells. The recording buffer contained 116 mM NaCl, 2 mM KCl, 0.3 mM BaCl2, and 5 mM HEPES, pH 7.4. Response magnitude was determined in xenopus oocytes expressing different NMDAR subunits (GluN1/2A, 1/2B, 1/2C, 1/2D, and 1/2A/2B) by the steady plateau response elicited by bath application of different agonist concentrations. […] Response amplitudes for functional NMDARs were generally between 0.1 and 2 μA. […] Dose–response relationships were fit to an appropriate curve‐fitting equation using GraphPad Prism‐7. Nonlinear regression was used to calculate EC50 and/or percentage maximal response. […] Statistical significance was determined at the overall alpha level .05, using appropriate statistical methods as described in each figure captions.
# [7] = target: T2, GluN1/2A (UniProt P35439+Q12879); assay: Whole‐cell patch‐clamp electrophysiology in HEK293T cells; assay type: cell-based; parameters: expressed in transfected cells; host or cells: HEK-293 / HEK293T cells
# Experimental: Whole‐cell patch‐clamp electrophysiology studies were carried out in the HEK‐293 cells, expressing recombinant NMDARs that lack native functional NMDARs.[40], [41], [42] Equal quantity of (1 µg) cDNA for GluN1a, GluN2 (A or B or C or D) subunits were co‐transfected 24–48 h before patch‐clamp electrophysiology assay. […] Cells were carefully washed before performing experiments and were used for the electrophysiology experiments after 24–48 h incubation at 37°C with 5%CO2. The whole‐cell patch‐clamp electrophysiology assay was performed using semi‐automated patch‐clamp equipment, Port‐a‐Patch (Nanion Technologies GmbH). Following are the constituents of various solutions used for patch‐clamp electrophysiology: internal solution [(mM) NaCl 10, EGTA 20, CsF 110, HEPES 10], Mg‐free external (recording) solution [(mM) NaCl 140, KCl 4, CaCl2 2, HEPES 10, D‐GlucoseMonohydrate 5], and Mg‐free seal enhancer solution [(mM) NaCl 80, KCl 3, CaCl2 35, HEPES 10]. Nanion NPC chips with […] resistance were used for the HEK‐293 cell recordings.
# [8] = target: T2, GluN1/2A; assay: TEVC electrophysiology dose–response in xenopus oocytes; assay type: cell-based; conditions: 100 µM CNS4, −60 mV, average ± SEM
# Description: as §3, §4
# Electrophysiological responses were measured using a standard two‐microelectrode voltage‐clamp workstation [Warner Instruments (Hamden, Connecticut) model OC‐725C] designed to provide a fast clamp of large cells. The recording buffer contained 116 mM NaCl, 2 mM KCl, 0.3 mM BaCl2, and 5 mM HEPES, pH 7.4. Response magnitude was determined in xenopus oocytes expressing different NMDAR subunits (GluN1/2A, 1/2B, 1/2C, 1/2D, and 1/2A/2B) by the steady plateau response elicited by bath application of different agonist concentrations. […] Response amplitudes for functional NMDARs were generally between 0.1 and 2 μA. […] Dose–response relationships were fit to an appropriate curve‐fitting equation using GraphPad Prism‐7. Nonlinear regression was used to calculate EC50 and/or percentage maximal response. Curve fittings were done using the following equations as performed in the previous studies[34], [39]: Y = 100/(1 + 10^(LogEC50‐X)) or Y = Bottom + (Top − Bottom)/(1+10^(LogEC50‐X)). Statistical significance was determined at the overall alpha level .05, using appropriate statistical methods as described in each figure captions.
# [9] = target: GluN1/2C (UniProt P35439+Q14957); assay: as above; assay type: cell-based; parameters: host or cells: Xenopus oocytes (cRNA injection)
# Description: NMDAR constructs: cDNA encoding the NMDAR1a subunit (GluN1a) was obtained from Dr. Nakanishi. cDNA encoding the GluN2B (pci_sepGluN2B) was developed initially in the Malinow lab[36] and purchased from Addgene (cat# 23998). cDNA encoding the GluN2C and GluN2D were purchased from GenScript. Mutated GluN1, 2A and 2B cDNA constructs capable of assembling as GluN1/2A/2B triheteromeric (1/2AB) receptors[37] were obtained from Dr. Paoletti (Laboratoire de Neurobiologie, CNRS). […] Plasmids were linearized with NotI (GluN1a) or Avrll (GluN2B), or BstB1 (GluN2C and GluN2D) and transcribed in vitro with T7 (GluN1a, GluN1/2A, GluN2B, GluN2C, & GluN2D) RNA polymerase using the mMessage mMachine transcription kits (Invitrogen by Thermo Fisher Scientific). […]
# Electrophysiological responses were measured using a standard two‐microelectrode voltage‐clamp workstation [Warner Instruments (Hamden, Connecticut) model OC‐725C] designed to provide a fast clamp of large cells. […] Response magnitude was determined in xenopus oocytes expressing different NMDAR subunits (GluN1/2A, 1/2B, 1/2C, 1/2D, and 1/2A/2B) by the steady plateau response elicited by bath application of different agonist concentrations. […] Statistical significance was determined at the overall alpha level .05, using appropriate statistical methods as described in each figure captions.
# [10] = 100 µM CNS4, 0.3 µM glutamate + 100 µM glycine, −60 mV, average ± SEM
# [11] = higher concentration (100 & 300 µM) of glutamate, almost no effect
# T1 sequence (O15399 28-1336, other chains not shown): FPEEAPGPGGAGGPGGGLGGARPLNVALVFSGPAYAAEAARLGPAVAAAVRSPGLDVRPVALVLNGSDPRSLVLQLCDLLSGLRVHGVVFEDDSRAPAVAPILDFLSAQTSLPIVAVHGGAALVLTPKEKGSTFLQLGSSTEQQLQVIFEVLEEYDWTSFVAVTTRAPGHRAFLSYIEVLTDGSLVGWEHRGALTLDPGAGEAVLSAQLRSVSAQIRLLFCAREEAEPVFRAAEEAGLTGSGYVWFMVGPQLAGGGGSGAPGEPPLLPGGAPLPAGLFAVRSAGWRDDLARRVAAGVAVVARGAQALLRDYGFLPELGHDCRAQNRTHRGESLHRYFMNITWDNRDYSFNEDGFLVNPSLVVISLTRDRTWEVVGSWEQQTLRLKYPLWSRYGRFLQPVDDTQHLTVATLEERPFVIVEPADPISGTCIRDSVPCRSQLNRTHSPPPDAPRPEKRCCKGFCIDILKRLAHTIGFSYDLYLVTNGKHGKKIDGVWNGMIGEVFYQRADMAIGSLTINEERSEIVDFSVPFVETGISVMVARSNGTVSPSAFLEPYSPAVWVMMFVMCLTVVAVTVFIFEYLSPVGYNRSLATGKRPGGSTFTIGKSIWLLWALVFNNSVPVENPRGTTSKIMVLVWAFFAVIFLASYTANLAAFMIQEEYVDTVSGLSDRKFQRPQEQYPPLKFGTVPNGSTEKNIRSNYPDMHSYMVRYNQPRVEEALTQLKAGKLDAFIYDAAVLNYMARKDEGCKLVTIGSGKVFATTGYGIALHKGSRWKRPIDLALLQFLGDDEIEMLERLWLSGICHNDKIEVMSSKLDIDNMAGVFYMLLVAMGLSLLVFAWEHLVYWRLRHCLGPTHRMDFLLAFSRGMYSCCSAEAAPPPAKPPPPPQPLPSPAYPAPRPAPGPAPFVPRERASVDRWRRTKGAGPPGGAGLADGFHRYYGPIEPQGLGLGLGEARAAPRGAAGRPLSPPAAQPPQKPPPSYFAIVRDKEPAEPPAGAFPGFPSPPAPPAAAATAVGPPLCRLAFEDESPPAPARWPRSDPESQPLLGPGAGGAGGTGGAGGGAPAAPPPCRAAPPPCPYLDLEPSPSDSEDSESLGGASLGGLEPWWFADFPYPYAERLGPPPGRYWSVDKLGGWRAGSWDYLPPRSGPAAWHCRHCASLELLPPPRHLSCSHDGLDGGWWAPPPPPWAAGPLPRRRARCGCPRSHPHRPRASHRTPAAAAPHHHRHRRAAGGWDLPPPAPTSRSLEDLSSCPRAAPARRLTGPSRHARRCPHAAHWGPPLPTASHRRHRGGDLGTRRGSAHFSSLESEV
# T2 sequence (Q12879 23-1464, other chains not shown): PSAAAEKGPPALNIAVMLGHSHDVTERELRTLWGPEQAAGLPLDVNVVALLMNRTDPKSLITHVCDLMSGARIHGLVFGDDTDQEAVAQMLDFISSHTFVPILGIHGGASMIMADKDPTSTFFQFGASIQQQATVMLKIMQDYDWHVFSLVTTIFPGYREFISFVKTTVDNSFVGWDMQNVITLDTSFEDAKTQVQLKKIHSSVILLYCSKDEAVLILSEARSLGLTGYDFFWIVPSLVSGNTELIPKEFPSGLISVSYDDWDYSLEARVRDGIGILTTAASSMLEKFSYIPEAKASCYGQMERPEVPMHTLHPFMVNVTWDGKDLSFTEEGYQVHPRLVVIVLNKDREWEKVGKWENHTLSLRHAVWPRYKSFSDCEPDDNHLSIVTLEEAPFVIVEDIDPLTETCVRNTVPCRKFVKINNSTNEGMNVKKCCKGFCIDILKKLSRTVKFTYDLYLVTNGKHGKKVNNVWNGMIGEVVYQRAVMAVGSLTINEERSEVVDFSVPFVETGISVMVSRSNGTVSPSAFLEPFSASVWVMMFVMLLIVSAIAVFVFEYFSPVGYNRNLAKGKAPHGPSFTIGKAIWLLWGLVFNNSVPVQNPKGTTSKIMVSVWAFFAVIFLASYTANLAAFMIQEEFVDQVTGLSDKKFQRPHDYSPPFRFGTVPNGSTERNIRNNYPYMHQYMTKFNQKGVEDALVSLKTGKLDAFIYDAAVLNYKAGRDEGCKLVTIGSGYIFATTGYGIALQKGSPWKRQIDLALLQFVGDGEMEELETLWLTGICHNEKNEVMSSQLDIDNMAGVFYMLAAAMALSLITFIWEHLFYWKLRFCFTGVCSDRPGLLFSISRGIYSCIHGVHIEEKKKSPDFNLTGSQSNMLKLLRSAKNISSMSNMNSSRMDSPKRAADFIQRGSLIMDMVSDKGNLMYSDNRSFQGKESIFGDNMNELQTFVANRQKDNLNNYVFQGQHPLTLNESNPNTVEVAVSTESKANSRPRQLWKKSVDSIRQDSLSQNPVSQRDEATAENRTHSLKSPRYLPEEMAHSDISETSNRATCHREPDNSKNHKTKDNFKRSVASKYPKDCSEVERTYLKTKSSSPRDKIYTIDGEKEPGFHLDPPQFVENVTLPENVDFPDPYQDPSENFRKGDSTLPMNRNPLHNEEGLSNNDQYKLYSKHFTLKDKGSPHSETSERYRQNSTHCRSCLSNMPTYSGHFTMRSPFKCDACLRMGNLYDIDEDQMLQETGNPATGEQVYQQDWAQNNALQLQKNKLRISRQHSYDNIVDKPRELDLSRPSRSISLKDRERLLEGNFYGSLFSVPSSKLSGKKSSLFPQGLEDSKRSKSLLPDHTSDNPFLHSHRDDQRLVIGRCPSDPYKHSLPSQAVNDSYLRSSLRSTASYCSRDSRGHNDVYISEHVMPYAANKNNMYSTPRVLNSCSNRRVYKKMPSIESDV
# Sequence of GluN1/2C (Q14957 20-1233, other chains not shown): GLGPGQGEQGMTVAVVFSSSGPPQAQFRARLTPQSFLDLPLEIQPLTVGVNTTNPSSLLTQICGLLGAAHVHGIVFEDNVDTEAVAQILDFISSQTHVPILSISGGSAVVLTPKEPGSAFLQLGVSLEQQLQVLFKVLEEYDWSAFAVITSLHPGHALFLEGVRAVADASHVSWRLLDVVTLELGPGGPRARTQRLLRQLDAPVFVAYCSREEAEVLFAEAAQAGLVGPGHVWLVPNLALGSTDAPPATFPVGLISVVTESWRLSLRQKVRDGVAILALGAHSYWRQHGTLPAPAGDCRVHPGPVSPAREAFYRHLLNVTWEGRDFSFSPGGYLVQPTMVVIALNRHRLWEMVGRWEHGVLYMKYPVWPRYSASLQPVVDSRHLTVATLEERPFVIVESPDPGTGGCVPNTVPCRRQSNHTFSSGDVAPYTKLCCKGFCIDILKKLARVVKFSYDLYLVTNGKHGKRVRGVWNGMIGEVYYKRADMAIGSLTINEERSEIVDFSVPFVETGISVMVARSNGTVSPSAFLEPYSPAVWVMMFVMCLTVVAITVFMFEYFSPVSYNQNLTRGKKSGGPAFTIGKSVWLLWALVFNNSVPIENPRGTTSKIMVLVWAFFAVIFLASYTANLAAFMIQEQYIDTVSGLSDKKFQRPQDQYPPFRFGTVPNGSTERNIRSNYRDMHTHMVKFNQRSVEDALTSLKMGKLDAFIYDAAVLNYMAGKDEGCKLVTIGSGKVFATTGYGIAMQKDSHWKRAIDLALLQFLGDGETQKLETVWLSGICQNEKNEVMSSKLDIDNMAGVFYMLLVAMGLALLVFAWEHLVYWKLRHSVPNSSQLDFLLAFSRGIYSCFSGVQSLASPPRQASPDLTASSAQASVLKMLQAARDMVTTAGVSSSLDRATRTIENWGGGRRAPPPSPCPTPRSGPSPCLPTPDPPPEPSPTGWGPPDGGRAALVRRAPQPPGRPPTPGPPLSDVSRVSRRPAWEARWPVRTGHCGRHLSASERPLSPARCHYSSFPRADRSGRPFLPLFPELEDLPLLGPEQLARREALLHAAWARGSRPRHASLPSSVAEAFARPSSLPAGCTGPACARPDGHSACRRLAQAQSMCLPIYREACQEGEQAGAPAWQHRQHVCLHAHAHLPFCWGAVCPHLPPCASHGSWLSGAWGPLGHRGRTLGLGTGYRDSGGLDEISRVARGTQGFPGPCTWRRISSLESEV
compound,measurement,setting,value
"O=C(NC(=S)N1CCCCC1c1cccnc1)c1ccc(F)cc1 (centres unmarked) [CNS4, 4‐fluoro‐N‐(2‐(pyridin‐3‐yl)piperidine‐1‐carbonothioyl)benzamide]","Na^+ signal, mean rfu","[1]; 100 µM CNS4 + 0.3 µM NMDA, p < .0001 vs CNS4 with no NMDA (412544)",391591 rfu
same,Na^+ signal compared to 300 µM NMDA alone,[1]; 100 µM CNS4 + 30–300 µM NMDA,significantly higher Na^+ signal
same,"Na^+ signal, mean rfu","[1]; 100 µM CNS4 + glutamate + MK801, p = .0024 vs glutamate + MK801 ([…])",519331 rfu
same,"Na^+ signal, mean rfu","[1]; 100 µM CNS4 alone, Figure 8B",538755 rfu
same,"Na^+ signal, mean rfu","[1]; 100 µM CNS4 with no NMDA, Figure 7A",412544 rfu
same,"Ca^2+ signal, rfu",[2],14423 rfu
same,"Ca^2+ signal, mean rfu","[3]; 100 µM CNS4 in vehicle, no NMDA, background control 13964, p < .0001",6317 rfu
same,CNS4 induced potentiation of Ca^2+ signal vs 300 µM NMDA,[3]; 100 µM CNS4 plus 300 µM NMDA,86%
same,"Ca^2+ signal, mean rfu","[3]; 100 µM CNS4 plus 300 µM NMDA, p < .0001 vs 300 µM NMDA alone (20964)",39001 rfu
same,inward current reversal potential,"[4]; 0.3 µM glutamate + 100 µM glycine + CNS4, absence of Mg2+, without CNS4 -84.35± 0.42, p<0.0001, n=6",-72.52±0.85 mv
same,inward current reversal potential,"[4]; 0.3 µM glutamate + 100 µM glycine + CNS4, presence of Mg2+, without CNS4 -88.29± 0.35, p<0.0001, n=6",-77.88±0.87 mv
same,voltage dependence of effect on current amplitude,"[4]; 100 µM CNS4, 100 µM glutamate + 100 µM glycine, −90 to +30 mv",no voltage dependence effect
same,reversal potential,"[4]; agonist (100 µM glutamate + 100 µM glycine) + 40 µM MgCl2 + 100 µM CNS4, without CNS4 −75.8 ± 5.51, p > .05",−72.58 ± 3.08 mv
same,reversal potential,"[4]; agonist (100 µM glutamate + 100 µM glycine) + 100 µM CNS4, absence of Mg^2+, agonist alone −54.2 ± 4.5, p > .05",−56.05 ± 5.8 mv
same,calcium signals compared to CNS4 alone treated cells,[5]; 100 µM CNS4 + 10 µM or higher concentrations of NMDA,significantly increased calcium signals
same,"Ca^2+ signal, mean rfu","[5]; 100 µM CNS4 + 100 µM GABA, p < .001 vs GABA alone (4196)",5124 rfu
same,"Ca^2+ signal, mean rfu","[5]; 100 µM CNS4 + 100 µM acetylcholine, p < .0001 vs acetylcholine alone (6222)",8082 rfu
same,"Ca^2+ signal, mean rfu","[5]; 100 µM CNS4 + 100 µM glutamate + 50 µM MK801, p = .7757 vs glutamate + MK801 (7997)",8359 rfu
same,Ca^2+ signal compared to background,"[5]; 100 µM CNS4 in the presence of 0.3, 1, 3 µM NMDA",did not increase Ca^2+ signal
same,Ca^2+ signal without NMDA,"[5]; 100 µM CNS4 in vehicle (HBSS) with no NMDA, Figure 6A",no significant Ca^2+ signal
same,more Ca^2+ signal compared to plain 300 µM NMDA,[5]; 100 µM CNS4 plus 300 µM NMDA,43%
same,"Ca^2+ signal, mean rfu","[5]; 100 µM CNS4 plus 300 µM NMDA, p < .0001 vs 300 µM NMDA alone (26711)",38274 rfu
same,"current response, agonist alone induced maximum current normalized to 100%",[6]; [10],850.35% ± 133.9%
same,potentiation of receptor current,[6]; [11],< 20%
same,deactivation time constant tau (τ),"[7]; 100 µM CNS4 + Ag (100 µM glutamate + 100 µM glycine), n = 19, Ag alone 710.9 ± 98.27 ms, n = 9, p < .05",1067 ± 104.3 ms
same,effect on maximum inducible current,"[7]; 100 µM CNS4 co‐applied with agonist, 0.3 µM glutamate + 100 µM glycine",significantly potentiated
same,effect on peak current amplitude,"[7]; 100 µM CNS4 co‐applied with agonist, 100 µM glutamate + 100 µM glycine",significantly inhibited
same,"current response, agonist alone induced maximum current normalized to 100%",[8]; 0.3 µM glutamate + 100 µM glycine,negligible effect
same,"current response, agonist alone induced maximum current normalized to 100%",[8]; 100 µM glutamate + 100 µM glycine,186.08% ± 23.5%
same,"current response, agonist alone induced maximum current normalized to 100%",[8]; 300 µM glutamate + 100 µM glycine,122.87% ± 9.9%
same,"current response, agonist alone induced maximum current normalized to 100%",[9]; [10],506.34% ± 52.9%
same,potentiation of receptor current,[9]; [11],< 20%
